This series is described as follows: Thermodynamic stability of crystalline form versus water activity. Format: physicochemical. The conditions noted are these: ambient temperature; about 0.2 (20% RH).

The structures appear in SMILES notation. Structures can show the parent of a compound that is named as a salt.

In the case of `COc1cc(C(=O)N2CCC3(CC2)CC(=O)c2c(cnn2C(C)C)C3)cc(-c2ccc(C(=O)O)cc2)n1` [Form 2 of Compound A], the “water activity at which the form is thermodynamically stable” value is given as above 0.2. With `COc1cc(C(=O)N2CCC3(CC2)CC(=O)c2c(cnn2C(C)C)C3)cc(-c2ccc(C(=O)O)cc2)n1` [Form 1 of Compound A, 4-(4-(1-isopropyl-7-oxo-1,4,6,7-tetrahydrospiro[indazole-5,4′-piperidine]-1′-carbonyl)-6-methoxypyridin-2-yl)benzoic acid anhydrous tris salt], the “water activity at which the form is thermodynamically stable” value is reported as below 0.2.

These data come from patent publication US12247022B2, “Combinations for treatment of NASH/NAFLD and related diseases” (Pfizer Inc., priority 2018, dated 2025).
